Key:
Design in all cases: scale not given: the % may be the effect or the level left
[1] = target: 3-phosphoinositide-dependent protein kinase 1 (Homo sapiens) (UniProt O15530); test: Inhibition of human PDK1 assessed as enzyme activity at 1 uM relative to control
[2] = target: Serine/threonine-protein kinase PAK 2 (Homo sapiens) (UniProt Q13177); test: Inhibition of human PAK2 assessed as enzyme activity at 1 uM relative to control
[3] = target: Tyrosine-protein kinase JAK3 (Homo sapiens) (UniProt P52333); test: Inhibition of human JAK3 assessed as enzyme activity at 1 uM relative to control
[4] = target: Serine/threonine-protein kinase Chk2 (Homo sapiens) (UniProt O96017); test: Inhibition of human CHK2 assessed as enzyme activity at 1 uM relative to control
[5] = target: Mitogen-activated protein kinase 8 (Homo sapiens) (UniProt P45983); test: Inhibition of human JNK1alpha1 assessed as enzyme activity at 1 uM relative to control
[6] = target: Mitogen-activated protein kinase kinase kinase 5 (Homo sapiens) (UniProt Q99683); test: Inhibition of human MAP3K5 assessed as enzyme activity at 1 uM relative to control
[7] = target: Tyrosine-protein kinase TXK (Homo sapiens) (UniProt P42681); test: Inhibition of human Txk assessed as enzyme activity at 1 uM relative to control
[8] = target: Tyrosine-protein kinase Lyn (Homo sapiens) (UniProt P07948); test: Inhibition of human Lyn assessed as enzyme activity at 1 uM relative to control
[9] = target: Calcium/calmodulin-dependent protein kinase type 1 (Homo sapiens) (UniProt Q14012); test: Inhibition of human CAMK1 assessed as enzyme activity at 1 uM relative to control
[10] = target: Serine/threonine-protein kinase MARK1 (Homo sapiens) (UniProt Q9P0L2); test: Inhibition of human MARK1 assessed as enzyme activity at 1 uM relative to control
[11] = target: Tyrosine-protein kinase Fgr (Homo sapiens) (UniProt P09769); test: Inhibition of human Fgr assessed as enzyme activity at 1 uM relative to control
[12] = target: Tyrosine-protein kinase receptor TYRO3 (Homo sapiens) (UniProt Q06418); test: Inhibition of human Rse assessed as enzyme activity at 1 uM relative to control
[13] = target: Mitogen-activated protein kinase 14 (Homo sapiens) (UniProt Q16539); test: Inhibition of human p38alpha assessed as enzyme activity at 1 uM relative to control
[14] = target: G protein-coupled receptor kinase 6 (Homo sapiens) (UniProt P43250); test: Inhibition of human GRK6 assessed as enzyme activity at 1 uM relative to control
[15] = target: Ribosomal protein S6 kinase alpha-6 (Homo sapiens) (UniProt Q9UK32); test: Inhibition of human Rsk4 assessed as enzyme activity at 1 uM relative to control
[16] = target: Mitogen-activated protein kinase 9 (Homo sapiens) (UniProt P45984); test: Inhibition of human JNK2alpha2 assessed as enzyme activity at 1 uM relative to control
[17] = target: Interleukin-1 receptor-associated kinase 4 (Homo sapiens) (UniProt Q9NWZ3); test: Inhibition of human IRAK4 assessed as enzyme activity at 1 uM relative to control
[18] = target: Cyclin-dependent kinase 1/cyclin B1 (Homo sapiens) (UniProt P06493+P14635); test: Inhibition of human CDK1/cyclinB assessed as enzyme activity at 1 uM relative to control; assay type: protein-complex assay
[19] = target: Rho-associated protein kinase 1 (Homo sapiens) (UniProt Q13464); test: Inhibition of human ROCK-1 assessed as enzyme activity at 1 uM relative to control
[20] = target: Mast/stem cell growth factor receptor Kit (Homo sapiens) (UniProt P10721); test: Inhibition of human KIT assessed as enzyme activity at 1 uM relative to control
[21] = target: Serine/threonine-protein kinase PAK 5 (Homo sapiens) (UniProt Q9P286); test: Inhibition of human PAK5 assessed as enzyme activity at 1 uM relative to control
[22] = target: Tyrosine-protein kinase ABL2 (Homo sapiens) (UniProt P42684); test: Inhibition of human Abl2 assessed as enzyme activity at 1 uM relative to control
[23] = target: Casein kinase I isoform gamma-2 (Homo sapiens) (UniProt P78368); test: Inhibition of human CK1gamma2 assessed as enzyme activity at 1 uM relative to control
[24] = target: Protein kinase C beta type (Homo sapiens) (UniProt P05771); test: Inhibition of human PKCbeta1 assessed as enzyme activity at 1 uM relative to control
[25] = target: Activin receptor type-1B (Homo sapiens) (UniProt P36896); test: Inhibition of human ALK4 assessed as enzyme activity at 1 uM relative to control
[26] = target: Ephrin type-A receptor 7 (Homo sapiens) (UniProt Q15375); test: Inhibition of human EphA7 assessed as enzyme activity at 1 uM relative to control
[27] = target: Protein kinase C beta type (Homo sapiens) (UniProt P05771); test: Inhibition of human PKCbeta2 assessed as enzyme activity at 1 uM relative to control
[28] = target: Vascular endothelial growth factor receptor 3 (Homo sapiens) (UniProt P35916); test: Inhibition of human Flt4 assessed as enzyme activity at 1 uM relative to control
[29] = target: Serine/threonine-protein kinase ULK2 (Homo sapiens) (UniProt Q8IYT8); test: Inhibition of human ULK2 assessed as enzyme activity at 1 uM relative to control
[30] = target: Serine/threonine-protein kinase 3 (Homo sapiens) (UniProt Q13188); test: Inhibition of human MST2 assessed as enzyme activity at 1 uM relative to control
[31] = target: Serine/threonine-protein kinase pim-3 (Homo sapiens) (UniProt Q86V86); test: Inhibition of human Pim-3 assessed as enzyme activity at 1 uM relative to control
[32] = target: Dual specificity mitogen-activated protein kinase kinase 1 (Homo sapiens) (UniProt Q02750); test: Inhibition of human MEK1 assessed as enzyme activity at 1 uM relative to control
[33] = target: ALK tyrosine kinase receptor (Homo sapiens) (UniProt Q9UM73); test: Inhibition of human ALK assessed as enzyme activity at 1 uM relative to control
[34] = target: Serine/threonine-protein kinase Nek2 (Homo sapiens) (UniProt P51955); test: Inhibition of human NEK2 assessed as enzyme activity at 1 uM relative to control
[35] = target: Tyrosine-protein kinase Blk (Homo sapiens) (UniProt P51451); test: Inhibition of human BLK assessed as enzyme activity at 1 uM relative to control
[36] = target: cAMP-dependent protein kinase catalytic subunit PRKX (Homo sapiens) (UniProt P51817); test: Inhibition of human PrKX assessed as enzyme activity at 1 uM relative to control
[37] = target: Ribosomal protein S6 kinase alpha-4 (Homo sapiens) (UniProt O75676); test: Inhibition of human MSK2 assessed as enzyme activity at 1 uM relative to control
[38] = target: Serine/threonine-protein kinase 24 (Homo sapiens) (UniProt Q9Y6E0); test: Inhibition of human MST3 assessed as enzyme activity at 1 uM relative to control

Protein kinase C beta type (Homo sapiens), sequence (P05771 2-671 limits assumed): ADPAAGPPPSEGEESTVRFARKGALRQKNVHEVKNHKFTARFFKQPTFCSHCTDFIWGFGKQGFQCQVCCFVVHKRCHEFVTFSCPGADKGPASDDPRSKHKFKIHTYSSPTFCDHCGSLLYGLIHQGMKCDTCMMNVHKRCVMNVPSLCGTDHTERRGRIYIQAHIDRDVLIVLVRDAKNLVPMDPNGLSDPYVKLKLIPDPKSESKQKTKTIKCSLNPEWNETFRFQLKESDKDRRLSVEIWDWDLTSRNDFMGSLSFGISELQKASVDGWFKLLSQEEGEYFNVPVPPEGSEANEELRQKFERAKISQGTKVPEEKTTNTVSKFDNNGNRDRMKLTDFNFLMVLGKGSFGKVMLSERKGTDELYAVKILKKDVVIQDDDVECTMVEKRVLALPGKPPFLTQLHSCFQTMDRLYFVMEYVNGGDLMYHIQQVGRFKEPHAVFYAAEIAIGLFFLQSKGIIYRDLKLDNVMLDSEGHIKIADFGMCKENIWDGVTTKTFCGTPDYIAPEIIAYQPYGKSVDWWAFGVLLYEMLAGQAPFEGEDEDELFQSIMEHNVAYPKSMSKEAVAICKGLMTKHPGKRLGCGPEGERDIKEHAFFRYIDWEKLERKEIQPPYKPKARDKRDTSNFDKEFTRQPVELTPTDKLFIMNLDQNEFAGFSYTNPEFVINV
G protein-coupled receptor kinase 6 (Homo sapiens), sequence (P43250 whole entry, looked up): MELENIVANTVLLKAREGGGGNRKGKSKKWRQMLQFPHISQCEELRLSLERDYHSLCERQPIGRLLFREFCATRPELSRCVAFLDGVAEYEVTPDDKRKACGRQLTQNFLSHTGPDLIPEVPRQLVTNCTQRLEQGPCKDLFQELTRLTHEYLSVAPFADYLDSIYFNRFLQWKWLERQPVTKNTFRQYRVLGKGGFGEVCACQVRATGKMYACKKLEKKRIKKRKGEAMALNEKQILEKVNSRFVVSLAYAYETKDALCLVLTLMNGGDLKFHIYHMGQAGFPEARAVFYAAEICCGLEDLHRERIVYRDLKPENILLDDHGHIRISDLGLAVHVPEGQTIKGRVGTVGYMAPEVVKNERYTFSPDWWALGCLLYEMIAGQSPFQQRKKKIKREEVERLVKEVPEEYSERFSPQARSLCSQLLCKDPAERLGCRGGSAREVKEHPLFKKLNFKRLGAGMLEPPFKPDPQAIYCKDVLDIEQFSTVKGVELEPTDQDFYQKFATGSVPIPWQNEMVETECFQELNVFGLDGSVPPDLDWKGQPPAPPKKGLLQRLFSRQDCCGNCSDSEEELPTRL
Cyclin-dependent kinase 1/cyclin B1 (Homo sapiens), sequence (P06493 whole entry, looked up): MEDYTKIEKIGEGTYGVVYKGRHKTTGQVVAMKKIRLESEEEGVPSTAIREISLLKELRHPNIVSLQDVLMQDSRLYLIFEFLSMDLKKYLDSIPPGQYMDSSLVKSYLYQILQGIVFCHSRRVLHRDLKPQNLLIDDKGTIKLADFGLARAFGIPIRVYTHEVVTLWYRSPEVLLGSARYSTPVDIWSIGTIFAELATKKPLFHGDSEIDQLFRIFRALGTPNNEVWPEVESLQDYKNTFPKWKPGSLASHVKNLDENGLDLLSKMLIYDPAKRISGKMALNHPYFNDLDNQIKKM
Cyclin-dependent kinase 1/cyclin B1 (Homo sapiens), sequence (P14635 whole entry, looked up): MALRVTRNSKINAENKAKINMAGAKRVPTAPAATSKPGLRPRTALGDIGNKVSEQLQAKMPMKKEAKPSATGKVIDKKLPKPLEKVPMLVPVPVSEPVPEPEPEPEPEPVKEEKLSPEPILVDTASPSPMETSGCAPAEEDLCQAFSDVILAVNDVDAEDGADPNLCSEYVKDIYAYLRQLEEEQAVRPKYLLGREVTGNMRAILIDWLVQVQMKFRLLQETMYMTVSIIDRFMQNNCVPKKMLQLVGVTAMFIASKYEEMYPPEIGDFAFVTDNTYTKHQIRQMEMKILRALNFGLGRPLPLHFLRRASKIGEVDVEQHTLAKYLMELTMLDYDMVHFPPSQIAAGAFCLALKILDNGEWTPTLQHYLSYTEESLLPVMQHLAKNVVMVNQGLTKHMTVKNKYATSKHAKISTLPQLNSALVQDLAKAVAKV
Tyrosine-protein kinase Fgr (Homo sapiens), sequence (P09769 2-529 limits assumed): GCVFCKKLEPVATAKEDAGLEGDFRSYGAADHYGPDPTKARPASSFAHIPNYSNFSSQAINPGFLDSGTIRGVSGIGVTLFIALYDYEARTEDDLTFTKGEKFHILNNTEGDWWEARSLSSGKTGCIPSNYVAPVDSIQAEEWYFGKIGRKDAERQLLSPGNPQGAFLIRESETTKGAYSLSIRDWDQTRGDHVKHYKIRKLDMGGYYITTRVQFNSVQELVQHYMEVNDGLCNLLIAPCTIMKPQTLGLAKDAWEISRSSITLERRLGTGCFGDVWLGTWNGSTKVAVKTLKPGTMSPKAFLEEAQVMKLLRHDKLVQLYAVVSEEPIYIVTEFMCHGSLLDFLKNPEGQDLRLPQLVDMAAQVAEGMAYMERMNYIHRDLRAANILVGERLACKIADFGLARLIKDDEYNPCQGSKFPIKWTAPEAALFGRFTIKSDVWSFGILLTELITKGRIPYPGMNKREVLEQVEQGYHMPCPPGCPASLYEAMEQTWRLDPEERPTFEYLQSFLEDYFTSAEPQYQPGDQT
Serine/threonine-protein kinase MARK1 (Homo sapiens), sequence (Q9P0L2 whole entry, looked up): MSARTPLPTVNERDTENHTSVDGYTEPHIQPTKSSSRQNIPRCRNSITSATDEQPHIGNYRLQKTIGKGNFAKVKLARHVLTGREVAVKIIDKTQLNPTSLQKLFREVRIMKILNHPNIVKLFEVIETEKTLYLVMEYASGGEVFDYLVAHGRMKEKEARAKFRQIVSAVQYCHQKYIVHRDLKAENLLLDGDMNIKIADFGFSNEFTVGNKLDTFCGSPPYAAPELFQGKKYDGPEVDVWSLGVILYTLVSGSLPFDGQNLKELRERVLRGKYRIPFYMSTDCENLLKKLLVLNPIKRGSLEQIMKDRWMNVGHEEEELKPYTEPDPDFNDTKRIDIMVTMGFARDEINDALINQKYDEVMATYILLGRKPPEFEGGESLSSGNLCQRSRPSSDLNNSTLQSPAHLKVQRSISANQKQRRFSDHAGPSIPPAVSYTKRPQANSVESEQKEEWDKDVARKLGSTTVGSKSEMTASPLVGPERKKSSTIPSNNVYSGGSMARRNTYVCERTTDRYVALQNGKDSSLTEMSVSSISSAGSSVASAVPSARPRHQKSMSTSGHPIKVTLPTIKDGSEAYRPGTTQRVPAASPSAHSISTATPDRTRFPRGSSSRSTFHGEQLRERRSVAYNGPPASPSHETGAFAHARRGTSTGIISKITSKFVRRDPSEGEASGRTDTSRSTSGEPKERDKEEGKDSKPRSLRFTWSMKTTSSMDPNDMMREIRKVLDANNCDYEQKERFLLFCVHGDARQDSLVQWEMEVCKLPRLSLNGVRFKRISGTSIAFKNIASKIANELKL
Dual specificity mitogen-activated protein kinase kinase 1 (Homo sapiens), sequence (Q02750 whole entry): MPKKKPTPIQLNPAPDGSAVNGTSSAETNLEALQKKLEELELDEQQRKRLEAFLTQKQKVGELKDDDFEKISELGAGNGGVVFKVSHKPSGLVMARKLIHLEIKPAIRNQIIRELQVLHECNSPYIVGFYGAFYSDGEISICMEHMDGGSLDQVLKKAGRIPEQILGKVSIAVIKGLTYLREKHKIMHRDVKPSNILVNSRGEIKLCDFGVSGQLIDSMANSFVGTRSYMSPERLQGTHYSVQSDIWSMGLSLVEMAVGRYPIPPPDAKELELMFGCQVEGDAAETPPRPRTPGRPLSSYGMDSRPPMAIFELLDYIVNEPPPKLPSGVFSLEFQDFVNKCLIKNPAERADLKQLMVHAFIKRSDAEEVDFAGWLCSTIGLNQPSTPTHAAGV
cAMP-dependent protein kinase catalytic subunit PRKX (Homo sapiens), sequence (P51817 whole entry): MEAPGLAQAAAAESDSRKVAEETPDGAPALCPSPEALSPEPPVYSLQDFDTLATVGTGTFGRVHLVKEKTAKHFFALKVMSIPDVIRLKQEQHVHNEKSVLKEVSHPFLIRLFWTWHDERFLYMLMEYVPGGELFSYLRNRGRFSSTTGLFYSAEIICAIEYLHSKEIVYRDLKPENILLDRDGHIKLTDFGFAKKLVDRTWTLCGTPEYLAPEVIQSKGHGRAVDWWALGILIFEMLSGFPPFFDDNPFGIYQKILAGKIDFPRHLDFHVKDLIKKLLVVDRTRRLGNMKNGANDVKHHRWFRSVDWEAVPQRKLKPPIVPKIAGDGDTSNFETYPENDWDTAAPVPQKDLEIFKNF
Serine/threonine-protein kinase PAK 5 (Homo sapiens), sequence (Q9P286 whole entry, looked up): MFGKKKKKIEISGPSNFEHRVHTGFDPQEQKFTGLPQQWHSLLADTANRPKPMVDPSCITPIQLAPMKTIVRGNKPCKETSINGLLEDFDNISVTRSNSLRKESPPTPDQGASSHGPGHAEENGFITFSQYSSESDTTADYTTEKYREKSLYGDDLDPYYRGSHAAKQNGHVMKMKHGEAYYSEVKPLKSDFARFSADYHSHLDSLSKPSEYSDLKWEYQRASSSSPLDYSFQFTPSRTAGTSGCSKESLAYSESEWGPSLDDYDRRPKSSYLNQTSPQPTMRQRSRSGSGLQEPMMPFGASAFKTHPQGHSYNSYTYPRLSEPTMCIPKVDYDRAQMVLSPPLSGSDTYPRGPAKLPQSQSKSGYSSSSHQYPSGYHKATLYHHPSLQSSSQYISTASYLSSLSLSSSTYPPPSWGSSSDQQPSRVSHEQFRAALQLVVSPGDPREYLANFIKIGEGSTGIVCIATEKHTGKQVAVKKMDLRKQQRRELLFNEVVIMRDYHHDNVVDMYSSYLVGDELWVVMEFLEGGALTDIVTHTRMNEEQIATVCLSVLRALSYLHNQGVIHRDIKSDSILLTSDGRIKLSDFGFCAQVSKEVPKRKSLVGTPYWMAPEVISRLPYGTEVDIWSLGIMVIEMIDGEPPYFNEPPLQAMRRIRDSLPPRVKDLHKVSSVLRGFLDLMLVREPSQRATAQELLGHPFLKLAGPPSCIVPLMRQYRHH

An Activity [1] of 105%, an Activity [2] of 114% and an Activity [3] of 99% were found for `CCCS(=O)(=O)Nc1cccc(Nc2ccc3ncn(C)c(=O)c3c2)c1C#N` in this work. It also gave an Activity [4] of 100%, an Activity [5] of 102% and an Activity [6] of 96%. It also gave an Activity [7] of 104%, an Activity [8] of 98% and an Activity [9] of 101%. The Activity [10] was 117%, the Activity [11] was 105% and the Activity [12] was 97%. It also gave an Activity [13] of 103%, an Activity [14] of 103% and an Activity [15] of 120%. It also gave an Activity [16] of 106%, an Activity [17] of 106% and an Activity [18] of 103%. The Activity [19] was 108%, the Activity [20] was 94.5% and the Activity [21] was 99.5%. For the same compound, the Activity [22] was 108%, the Activity [23] was 99.5% and the Activity [24] was 87%. It also gave an Activity [25] of 109%, an Activity [26] of 99% and an Activity [27] of 100%. For the same compound, the Activity [28] was 79.5%, the Activity [29] was 99.5% and the Activity [30] was 99.5%. It also gave an Activity [31] of 97%, an Activity [32] of 97% and an Activity [33] of 104%. It also gave an Activity [34] of 116%, an Activity [35] of 102% and an Activity [36] of 109%. For the same compound, the Activity [37] was 111% and the Activity [38] was 100%.

Reference: ChEMBL document CHEMBL3232845 (Bioorg Med Chem Lett, 2014)
